We go through 4 compounds from US20200237700A1, “METHODS OF REDUCING OR PREVENTING OXIDATION OF SMALL DENSE LDL OR MEMBRANE POLYUNSATURATED FATTY ACIDS” (Amarin Pharmaceuticals Ireland Limited, priority 2015, published 2020).

Test [1] has as its system human sdLDL. Put plainly: Copper-induced sdLDL oxidation, TBARS (Example 7). Particulars: for effect on sdLDL oxidation as compared to vehicle-treated controls: 10 μM, 1 hour. Format: biochemical. How it is done: (§1) An experiment to study the antioxidant effect of EPA in LDL and small dense […] performed. […] Fenofibrate, gemfibrozil, and niacin were purchased from Sigma-Aldrich. […] Vitamin E was also incubated with sample aliquots as a positive control.

Test [2] has as its system sdLDL isolated from human subjects under hyperglycemia. The test can be described thus: Glucose-induced sdLDL oxidation, TBARS/MDA (Example 10). In kind it is biochemical. Particulars: glucose 200 mg/dL; for glucose-induced sdLDL oxidation: 10.0 μM. How it is done:
Vitamin E (α-tocopherol) purchased from Sigma-Aldrich was prepared in ethanol at 1.0 mM (c=3.06×10^4 M^−1 cm^−1 at 294 nm) prior to experimental use. Test compounds were further diluted in ethanol or aqueous buffer as needed. Phosphate Buffered Saline (PBS) purchased from Sigma-Aldrich was prepared in double distilled water at 10 mM (138 mM NaCl, 2.7 mM KCl, pH 7.4). […] Lipid oxidation was measured by the colorimetric detection of malondialdehyde (MDA), a marker of oxidative stress. Data were presented as mean±SD for (n) separate samples or experiments. Differences between groups were analyzed using the unpaired, two-tailed Student's t-test (for comparisons between only two groups) or ANOVA followed by Student-Newman-Keuls multiple comparisons post hoc analysis (for comparisons between three or more groups).

The test system of test [3] is human LDL (unfractionated). Put plainly: Copper-induced unfractionated LDL oxidation, TBARS 1 hr (Example 7). Particulars: 10 μM. In kind it is biochemical. The method, then:
as §1

The nature of test [4]: Small angle x-ray diffraction of cholesterol-enriched POPC model membranes, cholesterol domain peak intensity (Example 9). In kind it is physicochemical. The conditions noted are these: drug-to-phospholipid mole ratio 1:30. The method, then: The fatty acid stock solutions were stored at −20° C. until use. […] Samples were shell-dried under nitrogen gas and placed under vacuum for 3 hours to remove residual solvent at room temperature. After desiccation, each sample was resuspended in saline buffer (0.5 mM HEPES, 154 mM NaCl, pH 7.3) to yield a final phospholipid concentration of 2.5 mg/mL. Lipid suspensions were then vortexed for 3 minutes at ambient temperature to form MLVs. Membrane lipid vesicles were oriented for x-ray diffraction analysis as described by others (e.g., Herbette et al., Biophys. […] Briefly, a 100 μL aliquot of each MLV preparation (containing 250 μg MLV) was transferred to a Lucite® sedimentation cell fitted with an aluminum foil substrate designed to collect MLVs into a single membrane pellet upon centrifugation. […] After centrifugal orientation, sample supernatants were aspirated and aluminum foil substrates, each supporting a single membrane pellet, were removed from the sedimentation cells. Sample pellets were dried for 5-10 minutes at ambient conditions, mounted onto curved glass supports, and placed in hermetically-sealed, brass or glass containers (for immediate analysis or temporary storage, respectively). All x-ray diffraction experiments were conducted at 20° C., 74% relative humidity. The latter was established by exposing membrane samples to saturated solutions of L-(+)-tartaric acid (K2C4H4O6.½H2O) for at least 1 hour prior to experimental analysis. Oriented membrane samples were aligned at grazing incidence with respect to a collimated, mono-chromatic CuKα x-ray beam (Kα1 and Kα2 unresolved; λ=1.54 Å) produced by a Rigaku Rotaflex RU-200, high-brilliance microfocus generator (Rigaku-MSC, The Woodlands, Tex.) as previously described (Mason et al., Biophys. J., vol. 55(4), pages 769-778 (1989)). The samples were initially subjected to x-ray diffraction analysis at least 12 hours after formation of the membrane pellets and retested for up to several days. […] Collimation of the x-ray beam was achieved using a single Franks mirror. Diffraction data were collected on a one-dimensional, position-sensitive electron detector (Hecus X-ray Systems, Graz, Austria) at a sample-to-detector distance of 150 mm from the sample site. […] Routines written in Origin 8.6 (OriginLab Corporation, Northampton, Mass.) were used to determine total peak area (associated with all diffraction peaks in a given pattern) against which the second-order cholesterol domain peak was normalized. […] Differences between groups were analyzed using the two-tailed, Student's t-test (for comparisons between only two groups) or ANOVA followed by Dunnett or Student-Newman-Keuls multiple comparisons post-hoc analysis (for comparisons between three or more groups). […]

Test [5] is described as follows: Glucose-induced membrane lipid peroxidation (LOOH) in multilamellar vesicles, CHOD-iodide assay (Example 4). In kind it is biochemical. The method, then:
Vitamin E (α-tocopherol) was also purchased from Sigma-Aldrich and prepared in ethanol at 1.0 mM (ε=3.06×10^4 M^−1 cm^−1 at 294 nm) just prior to experimental use. […] All test compounds were further diluted in ethanol or aqueous buffer as needed. Glucose was prepared in saline buffer (0.5 mM HEPES, 154 mM NaCl, pH 7.3) at 11.0 mM (200 mg/dL). CHOD-iodide color reagent (stock) was prepared, with slight modification, as described by from El-Saadani et al. (J. […] Samples were shell-dried under nitrogen gas and placed under vacuum for 1 h to remove residual solvent. […] Lipid suspensions were then vortexed for 3 min at ambient temperature to form MLVs. All MLV samples were subjected to time-dependent autoxidation by incubating at 37° C. in an uncovered, shaking water bath. This method allows lipid peroxidation to occur gradually without requiring the use of exogenous initiators. Small aliquots (5-100 μL) of each sample were removed, immediately following MLV preparation (0 hour) and after exposing samples to oxidative conditions for 72 or 96 hour, and combined with 1.0 mL of activated CHOD-iodide color reagent. Aliquot volume was reduced with each successive time point to ensure that spectrophotometric readings were within the optimal adsorption range. Test samples were covered and incubated in darkness at room temperature for at least 4 hr. Sample absorbances were then measured against a CHOD blank at 365 nm using a Beckman DU-640 spectrophotometer. The CHOD colorimetric assay is based on the oxidation of iodide (I^−) by lipid hydroperoxide (LOOH) to form triiodide (I3^−), the quantity of which is directly proportional to the amount of LOOH present in the lipid sample. The molar absorptivity (E) of I3^− is 2.46×10^4 M^−1 cm^−1 at 365 nm. […] The concentration of glucose selected was consistent with previous experimental studies of hyperglycemia under controlled laboratory conditions or observed in well-defined animal models of Type II diabetes following a glucose challenge. […] Values in FIG. 1 are mean±S.D. (N=6). EPA inhibited the peroxidative effects of glucose by 88% and 86% at 72 and 96 hours, respectively, which was highly significant (p<0.001) as compared to glucose treatment alone. […] Overall ANOVA-0 hour data: p=0.6655, F=0.4185; 72 hour data: p<0.0001, F=428.72; 96 hour data: p<0.0001, F=322.01.

For test [6], the system named is human sdLDL. Put plainly: Copper-induced sdLDL oxidation, TBARS after 2 hr (Example 6). Format: biochemical. How it is done: An experiment to study the antioxidant effect of EPA in small dense […] performed. […] Vitamin E (α-tocopherol) was purchased from Sigma-Aldrich and prepared in ethanol at 1.0 mM (ε=3.06×10^4 M^-1 cm^-1 at 294 nm) just prior to experimental use. All test compounds were further diluted in ethanol or aqueous buffer as needed. Venous blood was collected from healthy volunteers into vacutainer tubes containing sodium EDTA. Plasma was separated by centrifugation at 3000 g for 25 min at 4° C. and adjusted to a density of 1.020 g/mL with KBr. Triglyceride-rich lipoproteins (TGRL) and LDL fractions were then isolated by sequential centrifugation at 70,000 rpm at 4° C. in a Beckman LE-80 ultracentrifuge using a Beckman 50.4Ti rotor (Beckman Coulter, Inc., Fullerton, Calif.). The TGRL fraction (with a relative density of <1.020) was aspirated from the top of the centrifugate and discarded, leaving an LDL-enriched […] relative density of 1.020 to 1.063). […] The sdLDL subfraction was retained for additional experimentation. Plasma and lipoprotein fractions were maintained at 4° C. and protected from excessive exposure to light. Prior to oxidation experiments, EDTA was removed from the lipoprotein fraction using PD-10 desalting columns (GE Healthcare, Piscataway N.J.). After equilibration of the column with phosphate buffered saline (PBS), 2.5 mL of the lipoprotein fraction was loaded on the column and the flow-through discarded. The lipoprotein was then eluted with 3 mL of PBS. The LDL fractions were further diluted with PBS to obtain a 100 μg/mL apoB100 concentration. […] Data are presented as mean±S.D. for (N) separate samples or treatment groups. Differences between groups were analyzed using the two-tailed, Student's t-test (for comparisons between only two groups) or ANOVA followed by Dunnett or Student-Newman-Keuls multiple comparisons post-hoc analysis (for comparisons between three or more groups).

A short description of test [7]: Small angle x-ray diffraction of glucose-treated model membranes, cholesterol domain peak intensity (Example 4). Format: physicochemical. The conditions noted are these: any experimental time point; 1:30 drug-to-phospholipid; glucose 200 mg/dL. How it is done: After centrifugal orientation, sample supernatants were aspirated and aluminum foil substrates, each supporting a single membrane pellet, were removed from the sedimentation cells. […] All x-ray diffraction experiments were conducted at 20° C., 74% relative humidity.
Oriented membrane samples were aligned at grazing incidence with respect to a collimated, mono-chromatic CuKα x-ray beam (Kα1 and Kα2 unresolved; λ=1.54 Å) produced by a Rigaku Rotaflex RU-200, high-brilliance microfocus generator (Rigaku-MSC, The Woodlands, Tex.) as previously described (Mason et al., Biophys. J., vol. 55(4), pages 769-778 (1989)).
Routines written in Origin 8.6 (OriginLab Corporation, Northampton, Mass.) were used to determine total peak area (associated with all diffraction peaks in a given pattern) against which the second-order cholesterol domain peak was normalized.

In test [8] the test system is sdLDL from plasma of healthy volunteers. The test can be described thus: Time-dependent sdLDL oxidation, MDA formation over 4 hours (Example 13). In kind it is biochemical, human. Particulars: entire experimental time course (4 hours). The method, then:
sdLDL was isolated from the plasma of healthy volunteers by iodixanol density gradient centrifugation and adjusted to a final apolipoprotein concentration of 2 mg/mL. Sample aliquots (100 μg apolipoprotein) were incubated with EPA, DHA, or EPA+DHA (each at 10 μM) for 30 minutes at 37° C. and then treated with 10 μM CuSO4 to initiate lipid oxidation. sdLDL oxidation was measured spectrophotometrically as a function of malondialdehyde (MDA) formation at various intervals over 4 hours. Vitamin E was also tested as a positive control. Experiments were conducted in triplicate and reported as mean±SD.

The subject of test [9] is unfractionated LDL isolated from human plasma. The test can be described thus: Copper-induced oxidation of unfractionated LDL, TBARS (Example 6). Format: biochemical. Particulars: 1.0 μM to 10.0 μM; data not shown. The method, then:
All test compounds were further diluted in ethanol or aqueous buffer as needed. Venous blood was collected from healthy volunteers into vacutainer tubes containing sodium EDTA. […] Plasma and lipoprotein fractions were maintained at 4° C. and protected from excessive exposure to light. Prior to oxidation experiments, EDTA was removed from the lipoprotein fraction using PD-10 desalting columns (GE Healthcare, Piscataway N.J.). After equilibration of the column with phosphate buffered saline (PBS), 2.5 mL of the lipoprotein fraction was loaded on the column and the flow-through discarded. The lipoprotein was then eluted with 3 mL of PBS. The LDL fractions were further diluted with PBS to obtain a 100 μg/mL apoB100 concentration. […] Differences between groups were analyzed using the two-tailed, Student's t-test (for comparisons between only two groups) or ANOVA followed by Dunnett or Student-Newman-Keuls multiple comparisons post-hoc analysis (for comparisons between three or more groups).

Take `Cc1ccc(C)c(OCCCC(C)(C)C(=O)O)c1` [gemfibrozil]: the “effect on sdLDL oxidation as compared to vehicle-treated controls” value in test [1] is reported as “no significant effect”. In test [2], the “glucose-induced sdLDL oxidation” value was “did not inhibit glucose-induced sdLDL oxidation”. For the same compound, in [3], the “effect on unfractionated LDL oxidation as compared to vehicle-treated controls” value is “no significant effect”. In addition, the “effect on cholesterol domains / domain size” value in [4] is “no significant changes in cholesterol domain size”.

Consider `CC(C)c1c(C(=O)Nc2ccccc2O)c(-c2ccccc2)c(-c2ccc(F)cc2)n1CC[C@@H](O)C[C@@H](O)CC(=O)O` [ATM, Atorvastatin ortho- (o-) hydroxy (active) metabolite], for which the “inhibition of sdLDL oxidation vs vehicle” value is listed as 5±5% in test [1] (ATM 0.5 μM, alone or in combination with EPA 1.0 μM, 1 hr) and 18±5% in test [1] (each agent at 1.0 μM, 1 hr). Further, the “antioxidant effects of separate treatments (LOOH formation)” value in test [5] (each at 1.0 μM, glucose 200 mg/dL, 96 hours) was “potent antioxidant effects”.

In the case of `CC(C)c1c(C(=O)Nc2ccccc2)c(-c2ccccc2)c(-c2ccc(F)cc2)n1CC[C@@H](O)C[C@@H](O)CC(=O)O` [atorvastatin], the “effect on sdLDL oxidation as compared to vehicle-treated controls” value in test [1] is given as “did not have any significant antioxidant activity”. Moreover, the “inhibited TBARS formation / sdLDL oxidation vs vehicle” value in test [1] (each agent at 10 μM, 1 hr) is listed as 0.1±7%. Moreover, the “effect on unfractionated LDL oxidation as compared to vehicle-treated controls” value in test [3] is recorded as “did not have any significant antioxidant activity”.

In the case of `Cc1c(C)c2c(c(C)c1O)CC[C@@](C)(CCC[C@H](C)CCC[C@H](C)CCCC(C)C)O2` [vitamin E, α-tocopherol], the “effect on sdLDL oxidation as compared to vehicle-treated controls” value in test [1] is “no significant effect”. In addition, the “reduced TBARS levels compared to vehicle-treated controls” value in test [6] (10.0 μM, 10 μM CuSO4) was determined as 26%. In addition, the sdLDL oxidation result in test [6] (concentrations below the highest (10.0 μM)) was “did not inhibit sdLDL oxidation”. Further, the “effect on cholesterol domain formation as compared to control” value in test [7] is “no significant effect”. In addition, the “effect on LOOH formation / lipid peroxidation” value in [5] (72- and 96-hour time points, 1:30 drug-to-phospholipid mole ratio, glucose) is on record as “no significant effect”. Moreover, in test [2], the “glucose-induced sdLDL oxidation” value is on record as “failed to inhibit sdLDL oxidation” and the “increased sdLDL oxidation as compared to glucose-treated controls” value is given as 63%. Further, in [3], the “effect on unfractionated LDL oxidation as compared to vehicle-treated controls” value was “no significant effect”. For the same compound, in [8], the “antioxidant effect on sdLDL oxidation” value is “no significant antioxidant effect”. In test [9], the LDL oxidation result is “did not inhibit LDL oxidation at any concentration”.
